The structures appear in SMILES notation. Several values for one entry are separate records, joined by “and”; a condition that tells them apart may be missing. Equal values may be shown once. Entries after “also recorded” stand apart in the source; their conditions may differ.

Holding throughout (format): in vivo, Swiss mice
Test [1] deals with house mouse. In words: Clear-dark (light/dark) transition model. As to conditions: for Number of transitions between two compartments / Time spent in illuminated compartment: acute, mean ± EPM; for Effect on time spent in illuminated compartment (in words): versus control; for Anxiolytic effect in clear-dark model transition (in words): oral via, doses of 3 and 10 mg/kg.
In test [2] the test system is house mice. Briefly: Labyrinth in high T (elevated T maze) test. Set-up: key to Escape: latency in seconds (maximum 300 s). Conditions: for Escape / Inhibitory avoidance E1 / Inhibitory avoidance LB (basal latency) / Inhibitory avoidance E2 / Inhibitory avoidance E3 / Inhibitory avoidance E4: acute, mean ± EPM; for Anxiolytic effect in Labyrinth in high T (in words): 3 and 10 mg/kg, oral via. The procedure: Swiss mice weighing 25-35 g from the central animal laboratory of the Sao Paulo State University (UNESP/Araraquara) were used.
Accordingly, lyophilized hydroalcoholic extract (50, 100, 200 and 400 mg/kg) was used, in addition to F2 (3, 6, 10, 17 and 30 mg/kg) and the alkaloids erythrartine, erythravine and 11-OH-erythravine (3 and 10 mg/kg), administered via oral intake by gavage. The standard drug used was Diazepam (DZP) in a dose of 2 mg/kg (via intraperitoneal, i.p).
The Labyrinth in high T is made with transparent glass walls and wooden floor and consists of a closed arm (30×5×15 cm) perpendicularly linked to two open arms (30×5×0.25 cm), raised at 38.5 cm above the floor by a wooden support. In this test, five consecutive measures of inhibitory avoidance were performed (basal latency, avoidances 1, 2, 3 and 4) and one measure of escape from the open arms, with intervals of 30 seconds between each attempt. In the avoidance measures, the animals were placed in the distal section of the closed arm and the exit latency of this arm, on all four paws, towards the open arm was timed. In the escape measure, the animals were placed in the extremity of the right-hand open arm and the departure time from this arm was measured. The animals' maximum length of stay in the arms of the maze during these measures was 300 seconds. The apparatus was cleaned with ethanol 20% after testing each animal.
The results obtained from the Labyrinth in high T submitted to a two-way analysis of variance (ANOVA), with treatment being an independent factor and attempts being a dependent factor.

The test system of test [3] is house mouse. Briefly: Locomotion activity test in the arena. An excerpt: In order to avoid false positives or negatives, immediately after testing in the elevated T maze, the animals were submitted to the locomotive activity test in the arena.
The apparatus consists of a white polypropylene box with a rectangular base (40×48 cm), surrounded by 30 cm high walls. The floor is subdivided into 30 squares (8×8 cm).
In this test, the animals were placed in the center of the box and their activity was video recorded for five minutes, for subsequent analysis of the number of crossings of the quadrant areas and number of stretch-attend postures (WALSH and CUMMINS, 1976).
The results obtained with the arena were submitted to a one-way ANOVA followed by the Duncan post hoc test.

Setting [4] is: 2 mg/kg i.p., acute, five minutes, mean ± EPM.
The mark [5] stands for this setting: 3 and 10 mg/kg oral, one-way ANOVA.

Regarding `CN1C(=O)CN=C(c2ccccc2)c2cc(Cl)ccc21` [DZP, Diazepam, reference compound], in test [1] (2 mg/kg i.p.), the “Number of transitions between two compartments” value was 20.10 ± 2.93 and 13.92 ± 1.34 and 17.42 ± 2.40; the “Time spent in illuminated compartment” value was 144.20 ± 17.52 and 130.00 ± 16.76 and 140.67 ± 18.59. Besides, the “Effect on time spent in illuminated compartment (in words)” value (“Effect on time spent” below) in test [1] (DZP 2 mg/kg) is “expressively greater; also recorded: increased expressively; also recorded: observed only for the animals group treated with DZP”. In test [2] (2 mg/kg i.p.), the Escape is 19.0 ± 3.2 and 28.4 ± 7.1 and 27.1 ± 4.6; the “Inhibitory avoidance E1” value is 15.3 ± 3.8 and 19.1 ± 4.0 and 11.4 ± 1.4; the “Inhibitory avoidance LB (basal latency)” value is 24.6 ± 4.1 and 25.4 ± 4.1 and 25.6 ± 5.9. In test [3] (setting [4]), the Mixings was 167.4 ± 23.6 and 169.11 ± 33.2; the Raisings was 27.33 ± 2.3 and 21.11 ± 6.7.
In the case of `COc1cc2c(cc1OC)[C@]13C[C@@H](O)C=CC1=CCN3C[C@H]2O` [11-OH, 11-hydroxy-erythravine], in test [1] (3 mg/kg oral), the “Number of transitions between two compartments” value came out at 22.67 ± 2.66 and the “Time spent in illuminated compartment” value was determined as 98.67 ± 13.35. In test [1] (10 mg/kg oral), the “Number of transitions between two compartments” value came out at 14.00 ± 1.93 and the “Time spent in illuminated compartment” value was found to be 127.22 ± 21.83. In test [1] (dose of 3 mg/kg, P<0.05, listed as 11-hidroxi-erhytravine, 3 mg/kg), the “Effect on number of transitions between two compartments (in words)” value (“Effect on number” for short) is “increased the transitions”. In addition, in test [1] (dose of 3 mg/kg, P<0.05, listed as 11-hidroxi-erythravine, 3 mg/kg), the “Effect on number” value was “increased”. Moreover, the “Effect on time spent” value in test [1] (dose of 10 mg/kg, listed as 11-hidroxi-erhytravine, 10 mg/kg) is on record as “anxiolytic effect”. Also, the “Effect on time spent” value in test [1] (dose of 10 mg/kg, listed as 11-hidroxi-erythravine, 10 mg/kg) was “increased expressively”. In addition, the “Anxiolytic effect in clear-dark model transition (in words)” value in test [1] is listed as “anxiolytic effect”. Further, in test [2] (3 mg/kg oral), the Escape is 21.5 ± 3.7, the “Inhibitory avoidance E1” value was 41.8 ± 14.2, the “Inhibitory avoidance E2” value is 96.0 ± 34.4 and the “Inhibitory avoidance E3” value stood at 132.3 ± 39.7. Moreover, in test [2] (3 mg/kg oral), the “Inhibitory avoidance E4” value came out at 194.4 ± 39.5 and the “Inhibitory avoidance LB (basal latency)” value worked out at 30.7 ± 5.8. In addition, in test [2] (10 mg/kg oral), the Escape is listed as 26.8 ± 4.8, the “Inhibitory avoidance E1” value was 30.0 ± 6.1, the “Inhibitory avoidance E2” value stood at 54.0 ± 21.1 and the “Inhibitory avoidance E3” value is recorded as 66.6 ± 30.3. In test [2] (10 mg/kg oral), the “Inhibitory avoidance E4” value stood at 94.8 ± 31.7 and the “Inhibitory avoidance LB (basal latency)” value was determined as 22.6 ± 3.5. For the same compound, in test [2], the “Anxiolytic effect in Labyrinth in high T (in words)” value (shortened to “Anxiolytic effect in Labyrinth”) is given as “anxiolytic effect”. The “Response on the locomotion activity test at the arena (in words)” value in test [3] (3 mg/kg) is given as “did not have an increase of the response”.
As to `COc1cc2c(cc1OC)[C@]13C[C@@H](OC)C=CC1=CCN3C[C@H]2O` [ERIT, erythrartine], in test [1] (3 mg/kg oral), the “Number of transitions between two compartments” value is reported as 13.00 ± 1.56 and the “Time spent in illuminated compartment” value stood at 67.67 ± 8.33. In addition, in test [1] (10 mg/kg oral), the “Number of transitions between two compartments” value is given as 14.25 ± 1.59 and the “Time spent in illuminated compartment” value amounted to 83.42 ± 14.17. The “Effect on number” value in test [1] (setting [5]) is given as “did not show signified effect”. Moreover, the “Anxiolytic effect in Labyrinth” value in test [2] is on record as “anxiolytic effect”.
With `COc1cc2c(cc1OC)[C@]13C[C@@H](O)C=CC1=CCN3CC2` [ERI, erythravine], the “Number of transitions between two compartments” value in test [1] (3 mg/kg oral) was found to be 19.70 ± 2.96; in test [1] (10 mg/kg oral), 19.80 ± 1.32. In addition, the “Time spent in illuminated compartment” value in test [1] (3 mg/kg oral) amounted to 115.40 ± 18.58; in test [1] (10 mg/kg oral), 112.00 ± 10.95. Further, the “Effect on number” value in test [1] (setting [5]) is “did not show significant differences between groups”. Besides, in test [1] (oral doses of 3 mg/kg and 10 mg/kg), the “Effect on time spent” value is “expressively greater; also recorded: anxiolytic effect”. For the same compound, the “Anxiolytic effect in clear-dark model transition (in words)” value in test [1] is “anxiolytic effect”. Also, the “Anxiolytic effect in Labyrinth” value in test [2] is “anxiolytic effect”.

Values taken from patent US20080227801A1, “Pharmaceutical Compositions Containing Erythrina Mulungu Derivatives, Processes for their Production and Uses Thereof” (priority 2005, published 2008).
